The subject of this experiment is peptide selected CD4^+ cells. Put plainly: Antigen response (proliferation) of lymph node CD4^+ cells from peptide-injected TCR^TgTCRα^−H2-M^−Ii^− mice. In kind it is cell-based, mouse. Here is the method: Antigen response of TCR transgenic cells. Proliferation of lymph node cells isolated from TCR^TgTCRα^−and TCR^TgTCRα^−2-M^−Ii^− mice injected with the selecting peptide was measured in response to antigen. Response of the TCR^TgTCRα^− lymph node cells to different agonist peptides was measured by proliferation assay in a 96-well plate. 10^5 responder cells were stimulated with peptides presented by 5×10^5 irradiated C57BL6 splenocytes. Agonist peptides were used at concentrations of 0.01, 0.1, 0.5, 1.0, 2.5, 5.0, 10.0 and 20.0 μM. After 3 days cells were pulsed with 1 μCi of [^3H]thymidine added to each well and after 18 hours thymidine incorporation was measured. The sequences of peptides used were: PCC50V (AEGFSYTVANKNKGIT), PCC50L (AEGFSYTLANKNKGIT), PCC50V54A (AEGFSYTVANKAKGIT), PCC46A49A50V54A (AEGASYAVANKAKGIT), PCC50F54A (AEGFSYTFANKAKGIT), neutral ceramidase (AGFFQYTLYILASEG) and IgGVH (NADFKTPATLTVDKA). […] Proliferation was measured after 3 days by thymidine incorporation by pulsing cells with 1 μCi of [^3H] thymidine for 18 hours. […] For antagonism assays the percent of proliferation inhibition was calculated as 100-100*(thymidine incorporation in the presence of antagonist/thymidine incorporation in the absence of antagonist) (Lyons et al., 1996).

“Also recorded” adds a separate entry of the source.

Consider “AEGFSYTVANKAKGIT [PCC50V54A, analog of pigeon cytochrome C peptide PCC(43-58)]”, for which the “response of peptide selected CD4^+ cells to agonist peptides in vitro” value is “functional and respond to agonist peptides; also recorded: weakly respond in vitro”.

Source of the values: patent US20030021796A1, “Method of enhancing T cell immunity by selection of antigen specific T cells” (priority 2001, published 2003).
